Assay results reported in US20110054188A1, “NEAR INFRARED FLUORESCENT IMAGING AGENT” (FUJIFILM Corporation, priority 2009, published 2011).

Legend:
Assay type in all cases: in vitro ADME
Conditions in all cases: 5 μM, equilibrium dialysis 4 hours at 37° C.
plasma protein [1] = experiment: Plasma protein binding rate test by equilibrium dialysis method, human plasma
Protocol: (§1) Plasma protein binding rates of the compounds were determined by equilibrium dialysis method (W. Lindner et al, J. Chromatography, 1996, 677, 1-28). Each test compound was dissolved in distilled water at concentration of 200 μM. The solution was added to the plasma of mouse, dog, rabbit, monkey and human respectively, at the amount to obtain the final concentration of 5 μM. This solution (300 μL) and PBS solution (500 μL) were added to each dialysis cell of equilibrium dialysis unit RED device (Pierce Biotechnology), and the cells were shaken at 100 rpm at 37° C. After 4 hours, samples of plasma and the buffer were collected, and the fluorescence intensity of each was measured by EnVision ([…]). After the concentrations were calculated from a calibration curve, the concentrations (%) of free test compound in plasma were determined.

plasma protein [2] = experiment: Plasma protein binding rate test by equilibrium dialysis method, monkey plasma
Protocol: as §1

plasma protein [3] = experiment: Plasma protein binding rate test by equilibrium dialysis method, mouse plasma
Protocol: as §1

plasma protein [4] = experiment: Plasma protein binding rate test by equilibrium dialysis method, rabbit plasma
Protocol: as §1

plasma protein [5] = experiment: Plasma protein binding rate test by equilibrium dialysis method, dog plasma
Protocol: as §1

Plasma protein binding rate (%) human (plasma protein [1]) | Plasma protein binding rate (%) monkey (plasma protein [2]) | Plasma protein binding rate (%) mouse (plasma protein [3]) | Plasma protein binding rate (%) rabbit (plasma protein [4]) | Plasma protein binding rate (%) dog (plasma protein [5]) | SMILES
92% | 93% |  | 88% |  | CC(/C=C/C=C1\N(CCS(=O)(=O)[O-])c2ccc(S(=O)(=O)[O-])cc2C1(C)C)=C\C=C\C1=[N+](CCS(=O)(=O)[O-])c2ccc(S(=O)(=O)[O-])cc2C1(C)C.[Na+].[Na+].[Na+] [Compound B, reference compound]
93% | 91% | 63% | 79% | 59% | CC(/C=C/C=C1\N(CCC(=O)[O-])c2ccc(P(=O)([O-])[O-])cc2C1(C)C)=C\C=C\C1=[N+](CCC(=O)[O-])c2ccc(P(=O)([O-])[O-])cc2C1(C)C.[Na+].[Na+].[Na+].[Na+].[Na+] [Compound 17]
96% | 95% | 59% | 82% |  | CC(/C=C/C=C1\N(CCS(=O)(=O)[O-])c2ccc(P(=O)([O-])[O-])cc2C1(C)C)=C\C=C\C1=[N+](CCS(=O)(=O)[O-])c2ccc(P(=O)([O-])[O-])cc2C1(C)C.[Na+].[Na+].[Na+].[Na+].[Na+] [Compound 18]
82% | 87% | 27% | 79% | 29% | CC1(C)C(/C=C/C=C/C=C/C=C2\N(CCS(=O)(=O)[O-])c3ccc(S(=O)(=O)[O-])cc3C2(C)C)=[N+](CCS(=O)(=O)[O-])c2ccc(S(=O)(=O)[O-])cc21.[Na+].[Na+].[Na+] [Compound A, reference compound]
93% | 96% |  | 94% |  | CC1(C)C(/C=C/C=C(/C=C/C=C2\N(CCS(=O)(=O)[O-])c3ccc(P(=O)([O-])[O-])cc3C2(C)C)c2ccccc2)=[N+](CCS(=O)(=O)[O-])c2ccc(P(=O)([O-])[O-])cc21.[Na+].[Na+].[Na+].[Na+].[Na+] [Compound 15]
95% | 92% | 77% | 95% | 77% | CC1(C)C(/C=C/C=C(/C=C/C=C2\N(CCC(=O)[O-])c3ccc(P(=O)([O-])[O-])cc3C2(C)C)c2ccccc2)=[N+](CCC(=O)[O-])c2ccc(P(=O)([O-])[O-])cc21.[Na+].[Na+].[Na+].[Na+].[Na+] [Compound 16]

The next lines start with the molecule.

SMILES | Plasma protein binding rate (%) human (plasma protein [1]) | Plasma protein binding rate (%) monkey (plasma protein [2]) | Plasma protein binding rate (%) mouse (plasma protein [3]) | Plasma protein binding rate (%) rabbit (plasma protein [4]) | Plasma protein binding rate (%) dog (plasma protein [5])
CC1(C)C(/C=C/C=C(/C=C/C=C2\N(CCCP(=O)([O-])[O-])c3ccc(S(=O)(=O)[O-])cc3C2(C)C)c2ccccc2)=[N+](CCCP(=O)([O-])[O-])c2ccc(S(=O)(=O)[O-])cc21.[Na+].[Na+].[Na+].[Na+].[Na+] [Compound 12] | 95% | 93% | 91% | 95% | 82%
CC1(C)C(/C=C/C=C/C=C/C=C2/N(CCCCC(=O)O)c3ccc(S(=O)(=O)O)cc3C2(C)C)=[N+](CCCCC(=O)O)c2ccc(S(=O)(=O)O)cc21.[Na+].[Na+] [Compound 6] | 88% | 79% |  | 88% | 59%
CC1(C)C(/C=C/C=C/C=C/C=C2/N(CCC(=O)[O-])c3ccc(P(=O)([O-])[O-])cc3C2(C)C)=[N+](CCC(=O)[O-])c2ccc(P(=O)([O-])[O-])cc21.[Na+].[Na+].[Na+].[Na+].[Na+] [Compound 13] | 89% | 90% |  | 87% | 
CC1(C)C(/C=C/C=C(/C=C/C=C2\N(CCP(=O)([O-])[O-])c3ccc(S(=O)(=O)[O-])cc3C2(C)C)c2ccccc2)=[N+](CCP(=O)([O-])[O-])c2ccc(S(=O)(=O)[O-])cc21.[Na+].[Na+].[Na+].[Na+].[Na+] [Compound 11] | 98% | 97% | 91% | 98% | 83%
CC1(C)C(/C=C/C=C/C=C/C=C2/N(CCS(=O)(=O)[O-])c3ccc(P(=O)([O-])[O-])cc3C2(C)C)=[N+](CCS(=O)(=O)[O-])c2ccc(P(=O)([O-])[O-])cc21.[Na+].[Na+].[Na+].[Na+].[Na+] [Compound 14] | 94% | 95% |  | 87% | 71%
CC1(C)C(=CC=CC=CC=CC2=[N+](CCP(=O)([O-])[O-])c3ccc(S(=O)(=O)[O-])cc3C2(C)C)N(CCP(=O)([O-])[O-])c2ccc(S(=O)(=O)[O-])cc21.[Na+].[Na+].[Na+].[Na+].[Na+] [Compound 9] | 56% | 67% | 46% | 61% | 50%
CC1(C)C(/C=C/C=C/C=C/C=C2\N(CC(=O)O)c3ccc(S(=O)(=O)[O-])cc3C2(C)C)=[N+](CC(=O)O)c2ccc(S(=O)(=O)[O-])cc21.[Na+] [Compound 4] | 74% | 71% | 57% | 67% | 50%
CC1(C)C(/C=C/C=C/C=C/C=C2/N(CCCP(=O)(O)O)c3ccc(S(=O)(=O)O)cc3C2(C)C)=[N+](CCCP(=O)(O)O)c2ccc(S(=O)(=O)O)cc21.[Na+].[Na+].[Na+].[Na+].[Na+].[Na+] [Compound 10] |  |  | 53% |  | 52%
